How the values were obtained:
Type in all cases: cell-based
[1] = biological target: T1, human muscarinic M3 receptor (Homo sapiens, UniProt P20309); experiment: Alphascreen Surefire phospho-ERK1/2 functional assay, M3; details: for EC50: CHO cells stably expressing human M3, phospho-ERK1/2, read-out: pEC50 M3 (converted); for Emax: CHO, read-out: M3 % Emax cf. ACh
T1 construct: expressed in transfected cells
Description: (§1) Functional assays were performed using the Alphascreen Surefire phospho-ERK1/2 assay (Crouch & Osmond, Comb. Chem. High Throughput Screen, 2008). ERK1/2 phosphorylation is a downstream consequence of both Gq/11 and Gi/o protein coupled receptor activation, making it highly suitable for the assessment of M1, M3 (Gq/11 coupled) and M2, M4 receptors (Gi/o coupled), rather than using different assay formats for different receptor subtypes. CHO cells stably expressing the human muscarinic M1, M2, M3 or M4 receptor were plated (25K/well) onto 96-well tissue culture plates in MEM-alpha+10% dialysed FBS. Once adhered, cells were serum-starved overnight. Agonist stimulation was performed by the addition of 5 μL agonist to the cells for 5 min (37° C.). Media was removed and 50 μL of lysis buffer added. After 15 min, a 4 μL sample was transferred to 384-well plate and 7 μL of detection mixture added. Plates were incubated for 2 h with gentle agitation in the dark and then read on a PHERAstar plate reader.
(§2) pEC50 and Emax figures were calculated from the resulting data for each receptor subtype.

[2] = biological target: T2, human muscarinic M4 receptor (Homo sapiens, UniProt P08173); experiment: Alphascreen Surefire phospho-ERK1/2 functional assay, M4; details: for EC50: CHO cells stably expressing human M4, phospho-ERK1/2, read-out: pEC50 M4 (converted); for Emax: CHO, read-out: M4 % Emax cf. ACh, CHO cells stably expressing human M4, Emax relative to ACh
T2 construct: expressed in transfected cells
T2 sequence (P08173 1-479): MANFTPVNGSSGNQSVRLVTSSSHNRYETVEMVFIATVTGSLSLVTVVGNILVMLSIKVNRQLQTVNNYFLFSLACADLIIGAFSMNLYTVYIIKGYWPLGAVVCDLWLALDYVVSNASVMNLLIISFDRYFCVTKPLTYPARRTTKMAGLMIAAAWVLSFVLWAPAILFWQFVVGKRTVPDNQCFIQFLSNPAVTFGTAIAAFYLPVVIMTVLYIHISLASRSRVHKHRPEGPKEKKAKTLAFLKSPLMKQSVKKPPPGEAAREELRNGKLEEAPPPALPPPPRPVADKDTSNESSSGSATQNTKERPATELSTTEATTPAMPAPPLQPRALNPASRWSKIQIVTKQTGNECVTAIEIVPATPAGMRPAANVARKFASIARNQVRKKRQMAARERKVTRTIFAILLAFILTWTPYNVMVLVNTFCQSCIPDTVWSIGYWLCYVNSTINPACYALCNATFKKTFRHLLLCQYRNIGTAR
Description: as §1, §2

[3] = biological target: T3, human muscarinic M1 receptor (Homo sapiens, UniProt P11229); experiment: Alphascreen Surefire phospho-ERK1/2 functional assay, M1; details: for EC50: CHO cells stably expressing human M1, phospho-ERK1/2, read-out: pEC50 M1 (converted); for Emax: CHO, read-out: M1 % Emax cf. ACh, CHO cells stably expressing human M1, Emax relative to ACh
T3 sequence (P11229 1-460): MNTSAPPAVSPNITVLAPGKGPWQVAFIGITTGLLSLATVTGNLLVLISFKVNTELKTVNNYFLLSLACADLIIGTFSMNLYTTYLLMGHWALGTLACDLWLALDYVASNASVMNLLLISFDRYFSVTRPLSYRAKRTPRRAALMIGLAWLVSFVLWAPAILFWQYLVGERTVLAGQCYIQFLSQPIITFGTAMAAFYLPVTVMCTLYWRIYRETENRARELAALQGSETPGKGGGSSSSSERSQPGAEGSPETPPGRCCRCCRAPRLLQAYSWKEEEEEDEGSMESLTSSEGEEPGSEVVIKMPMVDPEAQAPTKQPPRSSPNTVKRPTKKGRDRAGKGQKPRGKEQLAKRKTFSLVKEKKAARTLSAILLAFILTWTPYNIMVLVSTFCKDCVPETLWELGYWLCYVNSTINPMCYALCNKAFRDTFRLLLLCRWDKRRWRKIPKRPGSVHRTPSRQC
Description: as §1, §2

[4] = biological target: T4, human muscarinic M2 receptor (Homo sapiens, UniProt P08172); experiment: Alphascreen Surefire phospho-ERK1/2 functional assay, M2; details: for EC50: CHO cells stably expressing human M2, phospho-ERK1/2, read-out: pEC50 M2 (converted); for Emax: CHO, read-out: M2 % Emax cf. ACh
T4 sequence (P08172 1-466): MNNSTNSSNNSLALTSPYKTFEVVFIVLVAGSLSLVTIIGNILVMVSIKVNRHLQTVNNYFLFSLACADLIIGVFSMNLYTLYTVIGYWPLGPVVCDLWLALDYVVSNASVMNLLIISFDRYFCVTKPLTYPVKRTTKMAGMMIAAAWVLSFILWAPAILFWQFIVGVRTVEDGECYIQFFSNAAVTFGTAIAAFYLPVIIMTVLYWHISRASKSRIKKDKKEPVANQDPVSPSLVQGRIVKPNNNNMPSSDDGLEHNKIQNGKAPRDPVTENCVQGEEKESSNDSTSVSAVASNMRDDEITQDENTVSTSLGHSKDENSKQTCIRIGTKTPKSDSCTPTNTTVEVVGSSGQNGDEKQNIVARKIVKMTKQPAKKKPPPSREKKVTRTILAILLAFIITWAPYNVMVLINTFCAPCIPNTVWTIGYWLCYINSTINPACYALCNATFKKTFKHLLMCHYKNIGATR
Description: as §1, §2

T1 sequence (P20309 whole entry): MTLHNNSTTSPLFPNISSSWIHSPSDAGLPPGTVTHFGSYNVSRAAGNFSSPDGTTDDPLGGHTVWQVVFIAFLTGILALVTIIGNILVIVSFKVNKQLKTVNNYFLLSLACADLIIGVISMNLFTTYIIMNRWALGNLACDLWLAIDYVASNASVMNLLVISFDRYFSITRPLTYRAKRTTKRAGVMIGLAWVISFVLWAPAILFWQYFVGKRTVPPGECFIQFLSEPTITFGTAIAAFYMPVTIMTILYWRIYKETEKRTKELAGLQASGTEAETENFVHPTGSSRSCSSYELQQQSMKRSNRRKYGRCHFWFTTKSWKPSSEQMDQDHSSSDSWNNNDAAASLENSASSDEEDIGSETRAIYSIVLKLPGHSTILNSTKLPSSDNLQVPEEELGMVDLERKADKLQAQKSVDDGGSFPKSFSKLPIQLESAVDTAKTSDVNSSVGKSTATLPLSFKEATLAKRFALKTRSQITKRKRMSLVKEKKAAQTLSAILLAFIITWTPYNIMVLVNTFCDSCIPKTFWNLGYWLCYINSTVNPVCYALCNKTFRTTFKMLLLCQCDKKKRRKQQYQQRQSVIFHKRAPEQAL

| EC50 [1] [nM] | Emax [1] [%] | EC50 [2] [nM] | Emax [2] [%] | EC50 [3] [nM] | Emax [3] [%] | EC50 [4] [nM] | Emax [4] [%] | Structure (SMILES) |
| --- | --- | --- | --- | --- | --- | --- | --- | --- |
| > 20000 | 46 | 74.1 | 76 | 25.1 | 96 | > 20000 | 7 | CCOC(=O)N1CCCN(C2CCC(C#N)(c3cccc(F)c3)CC2)CC1 (mixture of isomers) [3-2 mixture of isomers] |
| > 20000 | 35 | 63.1 | 85 | 9.77 | 101 | > 20000 | 38 | CCOC(=O)N1CCCN(C2CCC(C#N)(c3ccc(F)cc3)CC2)CC1 (mixture of isomers) [3-3 mixture of isomers] |
| > 20000 | 38 | 100 | 62 | 9.55 | 105 | > 20000 | 11 | CCOC(=O)N1CCCN(C2CCC(C#N)(c3ccc(Cl)cc3)CC2)CC1 (mixture of isomers) [3-6 mixture of isomers] |
| > 20000 | 0 | > 20000 | 2 | 115 | 98 | > 20000 | 33 | CCOC(=O)N1CCCN(C2CCC(C#N)(c3ccc(OC)cc3)CC2)CC1 (mixture of isomers) [3-9 mixture of isomers] |
| > 20000 | 18 | > 20000 | 18 | 51.3 | 117 | > 20000 | 3 | CCOC(=O)N[C@H]1CCN(C2CCC(C#N)(c3ccccc3)CC2)C1 (single isomer, unassigned) [1-1 Isomer 2] |
| > 20000 | 1 | 741 | 52 | 209 | 102 | > 20000 | 23 | CCOC(=O)N[C@@H]1CCN(C2CCC(C#N)(c3ccccc3)CC2)C1 (single isomer, unassigned) [1-2 Isomer 2] |
| > 20000 | 1 | > 20000 | 13 | 30.9 | 119 | > 20000 | 0 | CCOC(=O)N[C@H]1CCN(C2CCC(C#N)(c3cccc(F)c3)CC2)C1 (single isomer, unassigned) [1-3 Isomer 2] |
| > 20000 | 8 | > 20000 | 7 | 35.5 | 98 | > 20000 | 3 | CCOC(=O)N[C@H]1CCN(C2CCC(C#N)(c3ccc(F)cc3)CC2)C1 (single isomer, unassigned) [1-4 Isomer 2] |
| > 20000 | 33 | > 20000 | 46 | 115 | 125 | > 20000 | 5 | CCOC(=O)N[C@@H]1CCN(C2CCC(C#N)(c3ccccc3F)CC2)C1 (single isomer, unassigned) [1-5 Isomer 2] |
| > 20000 | 2 | > 20000 | 12 | 27.5 | 99 | > 20000 | 6 | CCOC(=O)N[C@H]1CCN(C2CCC(C#N)(c3cccc(C)c3)CC2)C1 (single isomer, unassigned) [1-9 Isomer 2] |

The next lines start with the compound.

| Structure (SMILES) | EC50 [1] [nM] | Emax [1] [%] | EC50 [2] [nM] | Emax [2] [%] | EC50 [3] [nM] | Emax [3] [%] | EC50 [4] [nM] | Emax [4] [%] |
| --- | --- | --- | --- | --- | --- | --- | --- | --- |
| CCOC(=O)N1CCCN(C2CCC(C#N)(c3ccccc3Cl)CC2)CC1 (mixture of isomers) [3-4 mixture of isomers] | > 20000 | 40 | 832 | 46 | 295 | 86 | > 20000 | 12 |
| CCOC(=O)N1CCCN(C2CCC(C#N)(c3cccc(Cl)c3)CC2)CC1 (mixture of isomers) [3-5 mixture of isomers] | > 20000 | 36 | 309 | 47 | 83.2 | 101 | > 20000 | 5 |
| CCOC(=O)N1CCCN(C2CCC(C#N)(c3ccccc3C)CC2)CC1 (mixture of isomers) [3-7 mixture of isomers] | > 20000 | 34 | 1700 | 48 | 389 | 101 | > 20000 | 35 |
| CCOC(=O)N1CCCN(C2CCC(C#N)(c3cccc(C)c3)CC2)CC1 (mixture of isomers) [3-8 mixture of isomers] | > 20000 | 7 | 105 | 62 | 35.5 | 106 | > 20000 | 18 |
| CCOC(=O)N1CCCN(C2CCC(C#N)(c3ccccn3)CC2)CC1 (mixture of isomers) [3-11 mixture of isomers] | > 20000 | 15 | 389 | 99 | 72.4 | 97 | > 20000 | 43 |
| CCOC(=O)N1CCCN(C2CCC(C#N)(c3ccncc3)CC2)CC1 (mixture of isomers) [3-12 mixture of isomers] | > 20000 | 3 | 1070 | 48 | 155 | 116 | > 20000 | 5 |
| CCOC(=O)N1CCCN(C2CCC(C#N)(c3ccc(Cl)cn3)CC2)CC1 (mixture of isomers) [3-16 mixture of isomers] | > 20000 | 39 | 126 | 90 | 6.61 | 103 | > 20000 | 10 |
| CCOC(=O)N1CCCN(C2CCC(C#N)(c3ccc(C(F)(F)F)cn3)CC2)CC1 (mixture of isomers) [3-21 mixture of isomers] | > 20000 | 2 | > 20000 | 53 | 724 | 90 | > 20000 | 3 |
| COC(=O)N1CCCN(C2CCC(C#N)(c3ccccc3)CC2)CC1 (mixture of isomers) [3-28 mixture of isomers] | > 20000 | 7 | 245 | 91 | 776 | 116 | > 20000 | 15 |
| N#CC1(c2ccccc2)CCC(N2CCCN(C(=O)OCCF)CC2)CC1 (mixture of isomers) [3-29 mixture of isomers] | > 20000 | 3 | 200 | 68 | 537 | 75 | > 20000 | 3 |
